{"source": "patent US20220133847A1", "about": "“COMPOSITIONS AND METHODS FOR ALLEVIATING PAIN” (priority 2020, published 2022)", "key": {"[1]": {"method": "FIG. 5. […] Animals were sacrificed, and tissues were harvested four hours post-injection.\nA His-tagging method was used to assess the brain-penetrance of peptide therapeutics (Westlund et al., 2021, Neurobiol Pain 10:100067). Briefly, a His-tagged TAT-C3P peptide with the sequence […] (SEQ ID NO: 3) was ordered from Genscript. Protein content was assessed with Western blots using standard methods. Briefly, the sample protein was denatured, followed by gel electrophoresis to separate proteins by molecular weight. An anti-His-tag monoclonal antibody (C-terminal A01857, GenScript) that binds to the His-tag conjugated to the TAT-C3P peptide or anti-β-actin antibody (ab8226, Abcam, Cambridge, United Kingdom) was applied to the electrophoresis membrane. After washing off the antibody, specific secondary antibodies were added which recognized and bound to the primary antibodies. The secondary antibody was visualized through immunofluorescence probe attached to the secondary antibody, allowing indirect detection, validation, and semi-quantitative assessment of the specific target protein."}, "[2]": {"settings": "in vivo"}, "T-type Ca2+ channels": {"test_system": "T-type Ca2+ channels", "settings": "patients; cited from earlier work"}, "Cav3.3": {"molecular_target": "T1, Cav3.3 (Mus musculus, UniProt E9Q7P2)", "T1 construct": "Western blot analysis of Cav3.3 protein levels from whole TG lysates was performed; from tissue; host or cells: mouse trigeminal ganglia (FRICT-ION model)", "T1 sequence (E9Q7P2 1-2199)": "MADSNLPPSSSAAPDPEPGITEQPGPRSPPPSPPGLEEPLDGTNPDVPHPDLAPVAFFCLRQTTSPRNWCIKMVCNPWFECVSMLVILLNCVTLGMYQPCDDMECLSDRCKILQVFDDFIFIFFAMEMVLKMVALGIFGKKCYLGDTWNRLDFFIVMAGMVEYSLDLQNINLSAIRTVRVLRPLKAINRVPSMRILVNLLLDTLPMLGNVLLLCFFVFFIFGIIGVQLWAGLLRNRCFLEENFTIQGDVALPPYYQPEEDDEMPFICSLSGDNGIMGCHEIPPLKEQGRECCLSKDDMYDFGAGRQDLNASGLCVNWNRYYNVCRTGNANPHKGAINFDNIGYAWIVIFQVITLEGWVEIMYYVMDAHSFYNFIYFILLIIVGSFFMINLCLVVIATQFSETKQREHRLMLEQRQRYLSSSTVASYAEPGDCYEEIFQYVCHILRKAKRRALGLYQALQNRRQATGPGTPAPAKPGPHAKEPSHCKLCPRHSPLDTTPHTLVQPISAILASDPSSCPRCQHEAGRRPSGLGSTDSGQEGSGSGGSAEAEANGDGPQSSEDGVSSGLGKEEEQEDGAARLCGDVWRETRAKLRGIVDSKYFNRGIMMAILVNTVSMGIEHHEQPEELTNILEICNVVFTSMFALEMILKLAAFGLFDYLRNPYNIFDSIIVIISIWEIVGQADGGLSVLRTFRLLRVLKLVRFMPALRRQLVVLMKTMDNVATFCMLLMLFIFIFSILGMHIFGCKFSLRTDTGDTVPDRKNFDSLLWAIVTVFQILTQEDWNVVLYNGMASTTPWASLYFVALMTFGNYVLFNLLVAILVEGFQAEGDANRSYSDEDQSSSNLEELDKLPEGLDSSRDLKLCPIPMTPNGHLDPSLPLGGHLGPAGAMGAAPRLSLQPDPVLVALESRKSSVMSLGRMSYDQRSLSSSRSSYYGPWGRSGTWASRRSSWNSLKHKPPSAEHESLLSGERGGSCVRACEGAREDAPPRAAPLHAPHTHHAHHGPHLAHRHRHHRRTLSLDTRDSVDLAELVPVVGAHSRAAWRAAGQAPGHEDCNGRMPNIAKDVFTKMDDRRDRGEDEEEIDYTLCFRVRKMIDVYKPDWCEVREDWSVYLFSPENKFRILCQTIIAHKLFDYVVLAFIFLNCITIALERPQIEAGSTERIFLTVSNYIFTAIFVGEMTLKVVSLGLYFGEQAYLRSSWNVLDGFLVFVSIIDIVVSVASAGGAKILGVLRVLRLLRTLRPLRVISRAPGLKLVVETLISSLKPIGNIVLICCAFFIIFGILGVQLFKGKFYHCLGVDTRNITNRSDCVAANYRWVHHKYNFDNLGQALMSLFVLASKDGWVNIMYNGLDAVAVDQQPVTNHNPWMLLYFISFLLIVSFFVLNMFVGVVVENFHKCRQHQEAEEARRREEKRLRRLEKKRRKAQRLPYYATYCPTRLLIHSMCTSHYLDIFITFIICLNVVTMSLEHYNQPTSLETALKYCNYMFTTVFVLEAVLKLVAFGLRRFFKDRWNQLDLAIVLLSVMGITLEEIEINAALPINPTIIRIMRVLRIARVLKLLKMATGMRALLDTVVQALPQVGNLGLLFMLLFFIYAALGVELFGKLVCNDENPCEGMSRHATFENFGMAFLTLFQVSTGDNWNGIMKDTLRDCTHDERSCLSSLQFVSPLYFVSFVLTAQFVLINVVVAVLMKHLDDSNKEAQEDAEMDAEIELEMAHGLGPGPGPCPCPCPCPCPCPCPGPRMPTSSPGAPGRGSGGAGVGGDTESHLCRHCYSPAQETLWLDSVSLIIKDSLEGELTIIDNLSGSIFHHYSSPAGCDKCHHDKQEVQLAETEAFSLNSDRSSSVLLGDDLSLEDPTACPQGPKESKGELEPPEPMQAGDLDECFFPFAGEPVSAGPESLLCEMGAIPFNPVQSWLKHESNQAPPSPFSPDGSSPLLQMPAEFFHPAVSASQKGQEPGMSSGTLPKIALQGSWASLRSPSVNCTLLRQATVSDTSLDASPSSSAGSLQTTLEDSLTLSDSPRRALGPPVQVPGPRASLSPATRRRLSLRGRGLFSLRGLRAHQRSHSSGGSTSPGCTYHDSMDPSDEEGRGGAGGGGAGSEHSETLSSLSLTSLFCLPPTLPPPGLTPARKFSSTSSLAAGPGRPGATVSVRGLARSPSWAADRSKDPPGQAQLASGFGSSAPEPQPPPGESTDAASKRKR", "assay": "Western blot of Cav3.3 protein levels in whole trigeminal ganglia lysates after peptide injection", "format": "in vivo", "settings": "FRICT-ION mice, whole TG lysates, four hours post injection, normalized to actin", "experimental": "Twelve male and female mice (8-10 weeks old, six mice per sex) were subject to the FRICT-ION model of trigeminal neuropathic pain. Three mice of each sex were administered TAT-C3P peptide (SEQ ID NO:1) and the remaining mice were administered TAT-C3D (SEQ ID NO:2) following the methods described above. Four hours post injection, mice were euthanized with pentobarbital (50 mg/kg) and both ipsilateral and contralateral trigeminal ganglia (TG) were removed. TG were washed immediately in PBS and stored at −80° C.\nThe TG for each of the four groups were pooled together (n=3) for protein extraction and homogenized using a pestle and 500 μL of 1×RIPA buffer (Thermo Fisher Scientific, Inc., Waltham, Mass.). Samples were put on a rocking shaker for two hours and then centrifuged, and supernatant removed to a new tube. Samples were assayed for total protein. […] Samples were then prepared for electrophoresis by mixing with 2× sample buffer and boiling for five minutes at 100° C. for denaturation.\nProteins were loaded on a 12% Tris-Glycine polyacrylamide gradient gel (Bio-Rad Laboratories, Inc., Hercules, Calif.) and transferred to a PVDF membrane (MilliporeSigma, Burlington, Mass.). […] Signal intensity was analyzed using ImageJ (Schneider et al., Nature Methods 9:671-675 (2012)) for comparisons.\nMale and female mice were analyzed separately. […]"}, "Cav3.3 channels": {"molecular_target": "Cav3.3 channels (Homo sapiens, UniProt Q9P0X4)", "sequence (Q9P0X4 whole entry)": "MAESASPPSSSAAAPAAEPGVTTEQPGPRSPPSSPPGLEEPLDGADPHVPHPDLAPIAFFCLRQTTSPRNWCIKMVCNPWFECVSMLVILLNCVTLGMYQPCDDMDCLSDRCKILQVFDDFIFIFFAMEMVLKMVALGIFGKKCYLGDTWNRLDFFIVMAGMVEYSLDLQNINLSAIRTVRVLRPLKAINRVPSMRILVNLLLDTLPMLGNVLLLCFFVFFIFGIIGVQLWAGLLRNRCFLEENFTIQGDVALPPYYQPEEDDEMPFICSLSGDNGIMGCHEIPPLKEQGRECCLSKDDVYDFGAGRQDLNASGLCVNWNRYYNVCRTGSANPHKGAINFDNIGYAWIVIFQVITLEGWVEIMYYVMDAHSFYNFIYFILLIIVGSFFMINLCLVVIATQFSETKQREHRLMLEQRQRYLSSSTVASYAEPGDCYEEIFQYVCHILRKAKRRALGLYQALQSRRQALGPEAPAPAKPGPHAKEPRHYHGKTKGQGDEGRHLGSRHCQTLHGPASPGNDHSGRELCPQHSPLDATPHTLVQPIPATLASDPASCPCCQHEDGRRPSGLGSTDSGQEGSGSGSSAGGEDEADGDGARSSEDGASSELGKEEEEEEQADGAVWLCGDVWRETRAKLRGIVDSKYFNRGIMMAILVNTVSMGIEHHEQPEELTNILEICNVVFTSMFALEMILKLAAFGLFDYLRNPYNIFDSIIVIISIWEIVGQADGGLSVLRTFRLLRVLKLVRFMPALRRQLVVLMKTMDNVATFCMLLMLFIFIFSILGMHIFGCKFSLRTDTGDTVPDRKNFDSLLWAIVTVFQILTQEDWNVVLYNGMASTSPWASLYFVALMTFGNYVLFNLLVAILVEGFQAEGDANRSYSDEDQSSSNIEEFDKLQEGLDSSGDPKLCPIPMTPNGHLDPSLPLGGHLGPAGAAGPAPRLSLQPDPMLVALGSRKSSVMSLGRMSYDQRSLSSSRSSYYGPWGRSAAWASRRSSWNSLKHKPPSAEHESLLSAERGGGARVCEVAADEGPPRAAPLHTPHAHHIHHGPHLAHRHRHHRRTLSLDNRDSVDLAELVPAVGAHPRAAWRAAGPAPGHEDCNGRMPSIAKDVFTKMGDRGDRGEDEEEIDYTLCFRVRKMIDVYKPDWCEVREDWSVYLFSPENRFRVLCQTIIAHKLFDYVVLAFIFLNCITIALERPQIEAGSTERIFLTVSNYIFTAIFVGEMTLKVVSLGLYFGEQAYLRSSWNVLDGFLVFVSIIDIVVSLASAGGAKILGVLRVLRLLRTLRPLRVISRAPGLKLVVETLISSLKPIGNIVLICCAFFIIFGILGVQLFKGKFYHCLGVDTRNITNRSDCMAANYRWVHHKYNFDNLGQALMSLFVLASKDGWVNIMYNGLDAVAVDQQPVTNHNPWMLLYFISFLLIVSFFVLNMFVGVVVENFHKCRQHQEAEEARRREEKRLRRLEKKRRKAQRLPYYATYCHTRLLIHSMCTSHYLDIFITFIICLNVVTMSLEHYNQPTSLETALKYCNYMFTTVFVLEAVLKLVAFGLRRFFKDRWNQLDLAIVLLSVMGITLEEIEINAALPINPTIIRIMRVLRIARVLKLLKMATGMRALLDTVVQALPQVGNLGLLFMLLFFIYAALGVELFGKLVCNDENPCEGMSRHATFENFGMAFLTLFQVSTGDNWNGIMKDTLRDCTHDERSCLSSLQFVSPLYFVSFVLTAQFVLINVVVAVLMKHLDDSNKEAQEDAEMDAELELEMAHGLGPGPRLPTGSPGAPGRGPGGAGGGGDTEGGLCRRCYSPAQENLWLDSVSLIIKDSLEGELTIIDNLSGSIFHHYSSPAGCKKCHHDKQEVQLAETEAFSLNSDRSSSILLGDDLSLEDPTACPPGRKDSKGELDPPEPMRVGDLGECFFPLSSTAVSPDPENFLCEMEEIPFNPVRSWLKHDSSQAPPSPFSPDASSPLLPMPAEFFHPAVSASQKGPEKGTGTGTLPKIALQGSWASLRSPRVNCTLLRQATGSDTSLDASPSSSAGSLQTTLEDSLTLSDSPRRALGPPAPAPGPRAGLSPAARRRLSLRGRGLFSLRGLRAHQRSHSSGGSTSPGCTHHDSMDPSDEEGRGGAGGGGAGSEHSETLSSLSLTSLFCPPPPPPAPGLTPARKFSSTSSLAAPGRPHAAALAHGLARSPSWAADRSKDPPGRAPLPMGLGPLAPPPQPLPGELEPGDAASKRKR", "settings": "cited from earlier work"}}, "note": "Ends that are not written are not given here."}
{"molecule": "GRKKRRQRRRPQEESNKEAREDAELDAEIELEMAQG [TAT-C3P]", "values": [{"measurement": "CNS penetration following intraperitoneal injection", "setting": "[1]; FRICT-ION mice", "value": "penetrates the central nervous system"}, {"measurement": "side effects", "setting": "[2]", "value": "no major side effects"}]}
{"molecule": "CCC1(C)CC(=O)NC1=O", "note": "(stereo not drawn) [ethosuximide]", "values": [{"measurement": "outcome of clinical trial for neuropathic pain", "setting": "T-type Ca2+ channels", "value": "halted due to adverse events"}]}
{"molecule": "GRKKRRQRRRPQEESNKEAREDAELDAEIELEMAQGHHHHHH [His-tagged TAT-C3P]", "values": [{"measurement": "His-tag bands in TG and medullary tissues", "setting": "[1]; male FRICT-ION mice, tissues harvested four hours post-injection", "value": "Bands were detected"}]}
{"molecule": "TAT-C3D: control peptide that does not block Cav3.3 channels, GRKKRRQRRRPQAVSSPARSGEPLHALSPRGTARSP (GRKKRRQRRRPQAVSSPARSGEPLHALSPRGTARSP; unkown; TAT-C3D (1)..(36))", "values": [{"measurement": "Cav3.3 protein levels in the trigeminal ganglia", "setting": "Cav3.3", "value": "strongly present"}, {"measurement": "inhibition of Cav3.3", "setting": "Cav3.3 channels", "value": "does not inhibit Cav3.3"}]}
